Patent publication US6756382B2, “Amide substituted imidazoquinolines” (3M Innovative Properties Company, priority 1999, dated 2004)

Columns and labels:
[1] = test system: tumor necrosis factor (α); experiment: Cytokine induction in human cells: tumor necrosis factor (α) secreted by PBMCs, ELISA; format: cell-based; conditions: PBMC, incubated 18 to 24 hours, TNF determined by ELISA, read-out: Lowest Effective Concentration (μM) Tumor Necrosis Factor
Procedure, shortened: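 Human donor PBMCs at final 1.5-2×10^6 cells/mL in RPMI with 10% FBS incubated 18 to 24 h at 37° C. with serially diluted compound, DMSO at most 1% final. Supernatant TNF-α measured by ELISA; value is the lowest concentration inducing TNF.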

interferon (α) = experiment: Cytokine induction in human cells: interferon secreted by PBMCs, bioassay (A549 cells challenged with encephalomyocarditis virus); format: cell-based; conditions: PBMC, incubated 18 to 24 hours, interferon determined using the bioassay method, read-out: Lowest Effective Concentration (μM) Interferon
Excerpt: An in vitro human blood cell system was used to assess cytokine induction by compounds of the invention. Activity is based on the measurement of interferon and tumor necrosis factor (α) (IFN and TNF, respectively) secreted into culture media as described by Testerman et. al. In “Cytokine Induction by the Immunomodulators Imiquimod and S-27609”, Journal of Leukocyte Biology, 58, 365-372 (September, 1995).
Whole blood is collected by venipuncture into EDTA vacutainer tubes from healthy human donors. Peripheral blood mononuclear cells (PBMCs) are separated from whole blood by density gradient centrifugation using Histopaque®-1077 (Sigma Chemicals, St. Louis, Mo.). The PBMCs are suspended at 3-4×10^6 cells/mL in RPMI 1640 medium containing 10% fetal bovine serum, 2 mM L-glutamine and 1% penicillin/streptomycin solution (RPMI complete). The PBMC suspension is added to 48 well flat bottom sterile tissue culture plates (Costar, Cambridge, Mass. or Becton Dickinson Labware, Lincoln Park, N.J.) containing an equal volume of RPMI complete media containing test compound.
The compounds are solubilized in dimethyl sulfoxide (DMSO). The DMSO concentration should not exceed a final concentration of 1% for addition to the culture wells.
The solution of test compound is added at 60 μM to the first well containing RPMI complete and serial (three fold or ten fold) dilutions are made. The PBMC suspension is then added to the wells in an equal volume, bringing the test compound concentrations to the desired range. The final concentration of PBMC suspension is 1.5-2×10^6 cells/mL. The plates are covered with sterile plastic lids, mixed gently and then incubated for 18 to 24 hours at 37° C. in a 5% carbon dioxide atmosphere.
Following incubation the plates are centrifuged for 5-10 minutes at 1000 rpm (˜200×g) at 4° C. The cell culture supernatant is removed with a sterile polypropylene pipet and transferred to sterile polypropylene tubes. Samples are maintained at −30 to −70° C. until analysis. The samples are analyzed for interferon (α) by either ELISA or bioassay and for tumor necrosis factor (α) by ELISA.
Interferon is determined by bioassay using A549 human lung carcinoma cells challenged with encephalomyocarditis. The details of the bioassay method have been described by G. L. Brennan and L. H. Kronenberg in “Automated Bioassay of Interferons in Micro-test Plates”, Biotechniques, June/July, 78, 1983, incorporated herein by reference. Briefly stated the method is as follows: A549 cells are incubated with dilutions of samples or a standard interferon at 37° C. for 24 hours. The incubated cells are then infected with an inoculum of encephalomyocarditis virus. The infected cells are incubated for an additional 24 hours at 37° C. before evaluating for viral cytopathic effect. The viral cytopathic effect is quantified by staining with crystal violet followed by visual scoring of the plates. Results are expressed as alpha reference units/mL based on the value obtained for NIH Human Leukocyte IFN standard.
The table below lists the lowest concentration found to induce interferon and the lowest concentration found to induce tumor necrosis factor for each compound. […] Unless otherwise indicated, the interferon biosynthesis was determined by ELISA.

Compound | minimal effective concentration [1] | minimal effective concentration (interferon (α))
Nc1nc2ccccc2c2c1ncn2CCCCNC(=O)c1ccccc1Cl [Example 69] | 1.11 µM | 0.12 µM
Nc1nc2ccccc2c2c1ncn2CCCCNC(=O)c1c(Cl)cccc1Cl [Example 71] | 3.33 µM | 0.12 µM
Nc1nc2ccccc2c2c1ncn2CCCCNC(=O)c1ccc(F)cc1 [Example 72] | 10 µM | 0.37 µM
Nc1nc2ccccc2c2c1ncn2CCCCNC(=O)c1ccc(Cl)cc1 [Example 73] | 10 µM | 0.37 µM
COc1ccc(C(=O)NCCCCn2cnc3c(N)nc4ccccc4c32)cc1 [Example 74] | 10 µM | 0.37 µM
Cc1ccc(C(=O)NCCCCn2cnc3c(N)nc4ccccc4c32)cc1 [Example 77] | 10 µM | 1.11 µM
Nc1nc2ccccc2c2c1ncn2CCCCNC(=O)Cc1ccccc1 [Example 78] | 10 µM | 0.12 µM
Nc1nc2ccccc2c2c1ncn2CCCCNC(=O)/C=C/c1ccccc1 [Example 79] | > 30 µM | 0.37 µM
CC(C)(C)CC(=O)NCCCCn1cnc2c(N)nc3ccccc3c21 [Example 80] | 10 µM | 1.11 µM
Nc1nc2ccccc2c2c1ncn2CCCCNC(=O)C1CC1 [Example 81] | 30 µM | 3.33 µM
Nc1nc2ccccc2c2c1ncn2CCCCNC(=O)C1CCCC1 [Example 82] | 10 µM | 0.12 µM
Nc1nc2ccccc2c2c1ncn2CCCCNC(=O)C1CCCCC1 [Example 84] | 10 µM | 0.12 µM
